Common to all, as to assay type: binding
Experiment [1] addresses T1, kinases (KINOMEscan panel) (Homo sapiens, UniProt Q6P3R8).
T1 sequence (Q6P3R8 1-708): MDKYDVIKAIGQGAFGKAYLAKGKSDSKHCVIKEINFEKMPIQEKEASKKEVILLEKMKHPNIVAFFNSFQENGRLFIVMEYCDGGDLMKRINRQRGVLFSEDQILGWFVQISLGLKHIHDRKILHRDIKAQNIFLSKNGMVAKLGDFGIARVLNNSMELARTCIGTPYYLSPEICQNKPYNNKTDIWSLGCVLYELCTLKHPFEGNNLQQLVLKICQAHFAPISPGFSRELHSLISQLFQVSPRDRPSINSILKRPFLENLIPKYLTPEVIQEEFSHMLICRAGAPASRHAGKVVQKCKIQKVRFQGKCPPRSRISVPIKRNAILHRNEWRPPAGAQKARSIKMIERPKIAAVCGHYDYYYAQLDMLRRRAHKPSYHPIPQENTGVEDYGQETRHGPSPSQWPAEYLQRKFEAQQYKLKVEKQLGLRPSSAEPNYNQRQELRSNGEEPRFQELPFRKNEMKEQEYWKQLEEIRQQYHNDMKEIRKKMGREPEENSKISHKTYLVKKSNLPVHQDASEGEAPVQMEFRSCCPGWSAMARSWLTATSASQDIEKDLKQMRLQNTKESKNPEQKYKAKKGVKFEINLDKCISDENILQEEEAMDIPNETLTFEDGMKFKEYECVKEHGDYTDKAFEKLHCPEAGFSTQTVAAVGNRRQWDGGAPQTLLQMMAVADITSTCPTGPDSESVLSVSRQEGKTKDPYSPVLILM
To be noted: kinase NEK5; NEW KINOMEscan.

For experiment [2], the target named is T2, kinases (KINOMEscan panel) (Homo sapiens, UniProt Q9C098).
T2 sequence (Q9C098 1-648): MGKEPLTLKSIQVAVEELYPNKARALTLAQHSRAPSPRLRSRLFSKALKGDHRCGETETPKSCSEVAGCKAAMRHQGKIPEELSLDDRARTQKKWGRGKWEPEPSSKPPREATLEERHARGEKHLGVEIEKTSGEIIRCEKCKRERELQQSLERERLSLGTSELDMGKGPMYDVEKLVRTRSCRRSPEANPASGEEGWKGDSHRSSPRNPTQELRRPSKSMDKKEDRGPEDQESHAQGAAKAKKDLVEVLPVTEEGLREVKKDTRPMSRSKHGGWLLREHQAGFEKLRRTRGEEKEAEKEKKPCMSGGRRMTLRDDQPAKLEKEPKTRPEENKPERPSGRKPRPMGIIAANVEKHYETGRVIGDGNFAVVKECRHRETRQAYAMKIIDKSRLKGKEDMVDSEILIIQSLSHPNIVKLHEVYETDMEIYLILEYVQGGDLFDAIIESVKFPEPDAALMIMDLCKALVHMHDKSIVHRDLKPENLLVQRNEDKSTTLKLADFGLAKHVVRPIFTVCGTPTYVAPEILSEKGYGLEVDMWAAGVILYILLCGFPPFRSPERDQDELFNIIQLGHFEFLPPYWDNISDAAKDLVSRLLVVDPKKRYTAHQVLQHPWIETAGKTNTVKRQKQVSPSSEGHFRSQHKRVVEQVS
To be noted: kinase DCLK3; NEW KINOMEscan.

Experiment [3] deals with T3, kinases (KINOMEscan panel) (Homo sapiens, UniProt Q9UF33).
T3 sequence (Q9UF33 23-1036): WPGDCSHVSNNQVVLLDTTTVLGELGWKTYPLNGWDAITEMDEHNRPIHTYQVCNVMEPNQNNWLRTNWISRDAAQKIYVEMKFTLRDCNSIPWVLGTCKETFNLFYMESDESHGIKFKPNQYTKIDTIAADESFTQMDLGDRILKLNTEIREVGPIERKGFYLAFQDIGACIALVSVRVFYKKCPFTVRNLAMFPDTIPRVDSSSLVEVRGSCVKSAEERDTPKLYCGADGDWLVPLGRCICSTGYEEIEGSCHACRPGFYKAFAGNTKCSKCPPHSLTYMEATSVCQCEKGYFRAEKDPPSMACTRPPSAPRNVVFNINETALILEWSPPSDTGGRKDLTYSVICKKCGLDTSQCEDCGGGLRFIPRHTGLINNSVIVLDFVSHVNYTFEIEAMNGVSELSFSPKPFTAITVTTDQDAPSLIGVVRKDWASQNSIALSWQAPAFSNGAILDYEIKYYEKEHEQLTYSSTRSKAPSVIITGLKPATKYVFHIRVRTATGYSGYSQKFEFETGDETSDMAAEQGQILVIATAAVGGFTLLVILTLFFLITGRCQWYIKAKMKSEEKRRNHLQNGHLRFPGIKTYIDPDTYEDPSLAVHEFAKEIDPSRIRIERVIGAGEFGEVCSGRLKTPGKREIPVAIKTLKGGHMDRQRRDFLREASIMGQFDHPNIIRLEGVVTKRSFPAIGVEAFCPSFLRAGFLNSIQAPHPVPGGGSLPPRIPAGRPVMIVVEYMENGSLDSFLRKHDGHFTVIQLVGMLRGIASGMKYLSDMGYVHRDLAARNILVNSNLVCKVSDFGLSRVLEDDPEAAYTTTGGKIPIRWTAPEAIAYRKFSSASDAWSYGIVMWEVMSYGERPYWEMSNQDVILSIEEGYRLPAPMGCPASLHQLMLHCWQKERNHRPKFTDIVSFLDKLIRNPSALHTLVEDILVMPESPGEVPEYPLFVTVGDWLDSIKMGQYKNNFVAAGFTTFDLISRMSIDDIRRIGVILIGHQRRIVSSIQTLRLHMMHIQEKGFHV
The note with it: kinase EPHA6; NEW KINOMEscan.

With `Cc1cccc(-c2nc(Nc3ccc4nn(C)cc4c3)c3ccccc3n2)n1` [NK167], in experiment [1], the “KINOMEscan NEK5” value came to 0. Further, the “KINOMEscan DCLK3” value in experiment [2] is 10. Moreover, the “KINOMEscan EPHA6” value in experiment [3] is 0.
On to `Cc1cccc(-c2nc(N(C)c3ccc4ncsc4c3)c3ccccc3n2)n1` [NK-161], for which, in experiment [1], the “KINOMEscan NEK5” value amounted to 0. The “KINOMEscan DCLK3” value in experiment [2] turned out to be 14. Moreover, the “KINOMEscan EPHA6” value in experiment [3] was determined as 5.
